Test results from ChEMBL document CHEMBL1201862, “PubChem BioAssay data set” (2004).
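Interpolation was linear, between the two tested concentrations surrounding the appropriate level; five concentrations were tested over 48 hours in 96-well plates. GI50: concentration for 50% inhibition of growth.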 Active and inactive are the calls of the source. Cut-off read from the data, not from the text of the source: active = GI50 up to about 1.1 µM and inactive = higher.

How the values were obtained:
Test in all cases: inhibition of tumour cell growth, NCI panel, 48 h
[1] = test system: A498
[2] = test system: A549
[3] = test system: ACHN
[4] = test system: CAKI-1
[5] = test system: CCRF-CEM
[6] = test system: COLO 205
[7] = test system: DLD-1
[8] = test system: DMS-114
[9] = test system: DMS-273
[10] = test system: EKVX
[11] = test system: HCC 2998
[12] = test system: HCT-116
[13] = test system: HCT-15
[14] = test system: HL-60
[15] = test system: HOP-62
[16] = test system: HOP-92
[17] = test system: HT-29
[18] = test system: IGROV-1
[19] = test system: K562
[20] = test system: KM-20L2
[21] = test system: KM12
[22] = test system: LXFL 529
[23] = test system: M14
[24] = test system: M19-MEL
[25] = test system: MOLT-4
[26] = test system: Malme-3M
[27] = test system: NCI-H226
[28] = test system: NCI-H23
[29] = test system: NCI-H460
[30] = test system: NCI-H522
[31] = test system: OVCAR-3
[32] = test system: OVCAR-4
[33] = test system: OVCAR-5
[34] = test system: OVCAR-8
[35] = test system: RPMI-8226
[36] = test system: SF-268
[37] = test system: SF-295
[38] = test system: SF-539
[39] = test system: SK-MEL-28
[40] = test system: SK-MEL-2
[41] = test system: SK-MEL-5
[42] = test system: SK-OV-3
[43] = test system: SN12C
[44] = test system: SNB-19
[45] = test system: SNB-75
[46] = test system: SNB-78
[47] = test system: SR
[48] = test system: SW-620
[49] = test system: TK-10
[50] = test system: U-251
[51] = test system: UACC-257
[52] = test system: UACC-62
[53] = test system: UO-31
[54] = test system: XF498
[55] = test system: 786-0
[56] = test system: HOP-18
[57] = test system: LOX IMVI
[58] = test system: RXF 393

`CO/C(=N\N=Cc1ccccc1)c1ccncc1` was tested, and the GI50 [1] was > 100 µM (inactive), the GI50 [2] was > 100 µM (inactive) and the GI50 [3] was > 100 µM (inactive). For the same molecule, the GI50 [4] was > 100 µM (inactive), the GI50 [5] was > 100 µM (inactive) and the GI50 [6] was > 100 µM (inactive). The GI50 [7] was > 100 µM (inactive), the GI50 [8] was > 100 µM (inactive) and the GI50 [9] was > 100 µM (inactive). For the same molecule, the GI50 [10] was > 100 µM (inactive), the GI50 [11] was > 100 µM (inactive) and the GI50 [12] was > 100 µM (inactive). The GI50 [13] was over 100 µM, the GI50 [14] was > 100 µM (inactive) and the GI50 [15] was > 100 µM (inactive). For the same molecule, the GI50 [16] was > 100 µM (inactive), the GI50 [17] was > 100 µM (inactive) and the GI50 [18] was > 100 µM (inactive). For the same molecule, the GI50 [19] was > 100 µM (inactive), the GI50 [20] was > 100 µM (inactive) and the GI50 [21] was > 100 µM (inactive). For the same molecule, the GI50 [22] was > 100 µM (inactive), the GI50 [23] was > 100 µM (inactive) and the GI50 [24] was > 100 µM (inactive). For the same molecule, the GI50 [25] was > 100 µM (inactive), the GI50 [26] was > 100 µM (inactive) and the GI50 [27] was 12.6 µM (inactive). The GI50 [28] was > 100 µM (inactive), the GI50 [29] was > 100 µM (inactive) and the GI50 [30] was 68.9 µM (inactive). For the same molecule, the GI50 [31] was > 100 µM (inactive), the GI50 [32] was > 100 µM (inactive) and the GI50 [33] was > 100 µM (inactive). The GI50 [34] was > 100 µM (inactive), the GI50 [35] was > 100 µM (inactive) and the GI50 [36] was > 100 µM (inactive). For the same molecule, the GI50 [37] was > 100 µM (inactive), the GI50 [38] was > 100 µM (inactive) and the GI50 [39] was > 100 µM (inactive). The GI50 [40] was > 100 µM (inactive), the GI50 [41] was > 100 µM (inactive) and the GI50 [42] was > 100 µM (inactive). For the same molecule, the GI50 [43] was > 100 µM (inactive), the GI50 [44] was > 100 µM (inactive) and the GI50 [45] was 31.3 µM (inactive). For the same molecule, the GI50 [46] was > 100 µM (inactive), the GI50 [47] was > 100 µM (inactive) and the GI50 [48] was > 100 µM (inactive). The GI50 [49] was > 100 µM (inactive), the GI50 [50] was > 100 µM (inactive) and the GI50 [51] was > 100 µM (inactive). The GI50 [52] was > 100 µM (inactive), the GI50 [53] was 47.2 µM (inactive) and the GI50 [54] was 47.5 µM (inactive).
In the case of `Cc1ccc2[nH]c3c4c5ccccc5nc-4c[nH]c3c2c1`, the GI50 [55] was 17.1 µM (inactive), the GI50 [2] was 17.2 µM (inactive) and the GI50 [3] was 16.7 µM (inactive). The GI50 [4] was 15.8 µM (inactive), the GI50 [5] was 15.3 µM (inactive) and the GI50 [6] was 17.5 µM (inactive). The GI50 [7] was 15.5 µM (inactive), the GI50 [8] was 16.1 µM (inactive) and the GI50 [10] was 15.2 µM (inactive). The GI50 [11] was 16.1 µM (inactive), the GI50 [12] was 17.1 µM (inactive) and the GI50 [14] was 16.6 µM (inactive). For the same molecule, the GI50 [56] was 14.9 µM (inactive), the GI50 [15] was 10 µM (inactive) and the GI50 [17] was 11.6 µM (inactive). The GI50 [18] was 15 µM (inactive), the GI50 [19] was 12.6 µM (inactive) and the GI50 [20] was 15.1 µM (inactive). The GI50 [21] was 15.6 µM (inactive), the GI50 [57] was 17.2 µM (inactive) and the GI50 [22] was 19.2 µM (inactive). For the same molecule, the GI50 [23] was 18.2 µM (inactive), the GI50 [25] was 16.2 µM (inactive) and the GI50 [26] was 19.1 µM (inactive). The GI50 [27] was 16.1 µM (inactive), the GI50 [28] was 10 µM (inactive) and the GI50 [29] was 15.3 µM (inactive). The GI50 [30] was 21.5 µM (inactive), the GI50 [31] was 10 µM (inactive) and the GI50 [32] was 22.1 µM (inactive). For the same molecule, the GI50 [33] was 17.1 µM (inactive), the GI50 [34] was 18.6 µM (inactive) and the GI50 [35] was 18.1 µM (inactive). For the same molecule, the GI50 [58] was 13.8 µM (inactive), the GI50 [36] was 17 µM (inactive) and the GI50 [37] was 17.2 µM (inactive). The GI50 [38] was 16.9 µM (inactive), the GI50 [39] was 17.7 µM (inactive) and the GI50 [40] was 18.9 µM (inactive). For the same molecule, the GI50 [42] was 12.6 µM (inactive), the GI50 [43] was 16.3 µM (inactive) and the GI50 [44] was 17.3 µM (inactive). The GI50 [45] was 14.9 µM (inactive), the GI50 [46] was 17 µM (inactive) and the GI50 [48] was 13.7 µM (inactive). The GI50 [49] was 21 µM (inactive), the GI50 [50] was 14.8 µM (inactive) and the GI50 [51] was 18.1 µM (inactive). For the same molecule, the GI50 [52] was 16.4 µM (inactive), the GI50 [53] was 16.7 µM (inactive) and the GI50 [54] was 21.4 µM (inactive).
In the case of `CN(C(=O)C12C3C4C1C1C2C3C41C(N)=O)C(C)(C)C` (configuration not stated), the GI50 [55] was > 100 µM (inactive), the GI50 [1] was > 100 µM (inactive) and the GI50 [2] was > 100 µM (inactive). For the same molecule, the GI50 [3] was > 100 µM (inactive), the GI50 [4] was > 100 µM (inactive) and the GI50 [5] was > 100 µM (inactive). The GI50 [6] was > 100 µM (inactive), the GI50 [8] was > 100 µM (inactive) and the GI50 [9] was > 100 µM (inactive). The GI50 [10] was > 100 µM (inactive), the GI50 [11] was > 100 µM (inactive) and the GI50 [12] was > 100 µM (inactive). For the same molecule, the GI50 [14] was > 100 µM (inactive), the GI50 [16] was > 100 µM (inactive) and the GI50 [17] was > 100 µM (inactive). For the same molecule, the GI50 [18] was > 100 µM (inactive), the GI50 [19] was > 100 µM (inactive) and the GI50 [21] was > 100 µM (inactive). The GI50 [22] was > 100 µM (inactive), the GI50 [23] was > 100 µM (inactive) and the GI50 [24] was > 100 µM (inactive). For the same molecule, the GI50 [25] was > 100 µM (inactive), the GI50 [26] was > 100 µM (inactive) and the GI50 [27] was > 100 µM (inactive). For the same molecule, the GI50 [28] was > 100 µM (inactive), the GI50 [29] was > 100 µM (inactive) and the GI50 [30] was > 100 µM (inactive). For the same molecule, the GI50 [31] was > 100 µM (inactive), the GI50 [32] was > 100 µM (inactive) and the GI50 [33] was > 100 µM (inactive). The GI50 [34] was > 100 µM (inactive), the GI50 [36] was > 100 µM (inactive) and the GI50 [37] was > 100 µM (inactive). The GI50 [38] was > 100 µM (inactive), the GI50 [39] was > 100 µM (inactive) and the GI50 [41] was > 100 µM (inactive). For the same molecule, the GI50 [42] was > 100 µM (inactive), the GI50 [43] was > 100 µM (inactive) and the GI50 [44] was > 100 µM (inactive). The GI50 [45] was > 100 µM (inactive), the GI50 [46] was > 100 µM (inactive) and the GI50 [47] was > 100 µM (inactive). The GI50 [48] was > 100 µM (inactive), the GI50 [49] was > 100 µM (inactive) and the GI50 [52] was > 100 µM (inactive). The GI50 [53] was > 100 µM (inactive) and the GI50 [54] was > 100 µM (inactive).
